Reference: patent US11267824B2, “Inhibitors of indoleamine 2,3-dioxygenase and/or tryptophan 2,3-dioxygenase” (IDORSIA PHARMACEUTICALS LTD, priority 2017, dated 2022)
Like-named read-outs stand apart in the source and are kept apart here.

What was measured:
[1] = target: Recombinant full-length human IDO1 (Homo sapiens (Human), UniProt P14902); assay: IDO1 enzymatic assay (IDO inhibitory activity); assay type: biochemical; conditions: 2 nM enzyme, 5 μM L-tryptophan, pH6.5, 30 min pre-incubation, NFK quantified by LCMS; mean values if measured multiple times; read-out: hIDO activity (IC50 in nM)
Procedure: 1) Testing Compounds for IDO Inhibitory Activity in an IDO1 Enzymatic Assay:
Recombinant full-length human IDO1 with a N-terminal hexahistidine tag expressed in E. coli and purified to homogeneity is incubated at a final concentration of 2 nM in assay buffer consisting of 37.5 mM phosphate buffer at pH6.5 supplemented with 10 mM sodium L-ascorbate, 0.45 μM methylene blue, 50 U/ml catalase, 0.01% BSA, and 0.01% Tween 20 (protocol modified from Seegers et al, JBS 2014). Example compounds are serially diluted in DMSO, further diluted in phosphate buffer, and added to the enzyme at final concentrations ranging from 10 μM to 0.5 nM. The final DMSO concentration is 0.6%. Following a pre-incubation of 30 minutes at RT, the reaction is started by the addition of L-tryptophan at a final concentration of 5 μM in assay buffer. After 30 minutes of incubation at RT, 3 μL of the reaction mixture are transferred to a 384 deep well plate containing 25 μL of deionized water. 100 μl of 200 nM L-Tryptophan-(indole-d5) in cold 100% methanol are added followed by a 10 minutes centrifugation at 4,000 rpm at 4° C. An additional 75 μL of deionized water are then added and followed by a 10 minutes centrifugation at 4,000 rpm at 4° C. The product of the reaction N′-Formylkynurenine (NFK) is quantified by LCMS and normalized to the L-Tryptophan-(indole-d5) signal. Samples with 0.6% DMSO (0% effect) and a TDO/IDO inhibitor (100% effect) are used as control samples to set the parameters for the non-linear regression necessary for the determination of the half-maximal inhibitory concentration (IC50) for each compound. For each compound concentration the percentage of activity compared to 0% and 100% effect is calculated as average ±STDEV (each concentration measured in duplicate). IC50 values and curves are generated with XLfit software (IDBS) using Dose-Response One Site model 203 (four parameter logistic curve model). When compounds are measured multiple times, mean values are given.

[2] = target: Recombinant human TDO comprising amino acids 19-407 (Homo sapiens (Human), UniProt P48775); assay: TDO2 enzymatic assay (TDO inhibitory activity); assay type: biochemical; conditions: 15 nM enzyme, 200 μM L-tryptophan, pH7, 30 min pre-incubation, NFK quantified by LCMS, mean values if measured multiple times
Procedure: 2) Testing Compounds for TDO Inhibitory Activity in a TDO2 Enzymatic Assay:
Recombinant human TDO comprising amino acids 19-407 with a N-terminal hexahistidine tag expressed in E. coli and purified to homogeneity is incubated at a final concentration of 15 nM in assay buffer consisting of 75 mM phosphate buffer at pH7 supplemented with 100 μM ascorbic acid, 50 U/ml Catalase, 0.01% BSA, and 0.01% Tween 20 (protocol modified from Seegers et al, JBS 2014). Example compounds are serially diluted in DMSO, further diluted in phosphate buffer, and added to the reaction mixture at final concentrations ranging from 10 μM to 0.5 nM. The final DMSO concentration is 0.6%. Following a pre-incubation of 30 minutes at RT, the reaction is started by the addition of L-tryptophan at a final concentration of 200 μM in assay buffer. After 30 minutes of incubation at RT, 3 μL of the reaction mixture are transferred to a 384 deep well plate containing 25 μL of deionized water. 100 μl of 200 nM L-Tryptophan-(indole-d5) in cold 100% methanol are added followed by a 10 minutes centrifugation at 4,000 rpm at 4° C. An additional 75 μL of deionized water are then added and followed by a 10 minutes centrifugation at 4,000 rpm at 4° C. The product of the reaction N′-Formylkynurenine (NFK) is quantified by LCMS and normalized to the L-Tryptophan-(indole-d5) signal. Samples with 0.6% DMSO (0% effect) and a TDO/IDO inhibitor (100% effect) are used as control samples to set the parameters for the non-linear regression necessary for the determination of the half-maximal inhibitory concentration (IC50) for each compound. For each compound concentration the percentage of activity compared to 0% and 100% effect is calculated as average±STDEV (each concentration measured in duplicate). IC50 values and curves are generated with XLfit software (IDBS) using Dose-Response One Site model 203 (four parameter logistic curve model). When compounds are measured multiple times, mean values are given.

[3] = read-out: hTDO activity (IC50 in nM)

Recombinant full-length human IDO1, sequence (P14902 whole entry): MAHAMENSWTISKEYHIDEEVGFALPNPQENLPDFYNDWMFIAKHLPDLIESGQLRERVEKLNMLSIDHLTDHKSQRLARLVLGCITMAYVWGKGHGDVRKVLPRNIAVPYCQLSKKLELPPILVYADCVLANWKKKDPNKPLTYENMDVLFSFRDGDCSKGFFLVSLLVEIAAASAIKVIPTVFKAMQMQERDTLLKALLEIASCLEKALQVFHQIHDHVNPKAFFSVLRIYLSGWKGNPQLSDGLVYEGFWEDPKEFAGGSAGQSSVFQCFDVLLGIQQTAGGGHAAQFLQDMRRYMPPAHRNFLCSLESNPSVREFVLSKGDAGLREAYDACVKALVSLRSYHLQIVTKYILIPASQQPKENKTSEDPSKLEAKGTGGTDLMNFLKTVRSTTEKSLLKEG
Recombinant human TDO comprising amino acids 19-407, sequence (P48775 19-406 limits assumed): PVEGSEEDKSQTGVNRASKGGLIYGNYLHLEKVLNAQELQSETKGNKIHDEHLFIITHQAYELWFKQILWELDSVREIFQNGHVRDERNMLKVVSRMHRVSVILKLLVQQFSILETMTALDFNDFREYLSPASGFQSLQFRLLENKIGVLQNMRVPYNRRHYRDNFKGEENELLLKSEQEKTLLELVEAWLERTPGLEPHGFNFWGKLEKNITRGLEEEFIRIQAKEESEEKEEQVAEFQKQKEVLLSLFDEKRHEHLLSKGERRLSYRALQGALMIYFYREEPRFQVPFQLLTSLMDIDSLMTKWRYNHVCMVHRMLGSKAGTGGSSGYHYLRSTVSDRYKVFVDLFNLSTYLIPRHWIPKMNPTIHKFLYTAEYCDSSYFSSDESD

SMILES | IC50 [1] [nM] | IC50 [2, 3] [nM] | IC50 ([2]; hTDO activity (IC50 in nM)) [nM]
CC1CCC(CC(O)c2c(C3CC3)sc3cncn23)CC1 (racemic) [Example 49, rac-1-(2-Cyclopropyl-imidazo[5,1-b]thiazol-3-yl)-2-(4-methyl-cyclohexyl)-ethanol] | 50.3 | 638 | –
COC1CCC(CC(O)c2c(C3CC3)sc3cncn23)CC1 (racemic) [Example 131, rac-1-(2-Cyclopropyl-imidazo[5,1-b]thiazol-3-yl)-2-(4-methoxy-cyclohexyl)-ethanol] | 11.3 | 1330 | –
CC(C)C1CCC(C(O)c2c(C3CC3)sc3cncn23)CC1 (racemic) [Example 72, rac-(2-Cyclopropyl-imidazo[5,1-b]thiazol-3-yl)-(4-isopropyl-cyclohexyl)-methanol] | 102 | 1470 | –
CCc1sc2cncn2c1C(O)c1ccccc1 (racemic) [Example 176, rac-(2-Ethyl-imidazo[5,1-b]thiazol-3-yl)-phenyl-methanol] | 59.3 | 195 | –
OC(c1c(-c2ccsc2)sc2cncn12)C1CCCCC1 (racemic) [Example 94, rac-Cyclohexyl-(2-thiophen-3-yl-imidazo[5,1-b]thiazol-3-yl)-methanol] | 144 | 181 | –
OC(CC1CCCCC1)c1c(Br)sc2cncn12 (racemic) [Example 33, rac-1-(2-Bromo-imidazo[5,1-b]thiazol-3-yl)-2-cyclohexyl-ethanol] | 55.7 | 1410 | –
OC(c1c(C2CC2)sc2cncn12)C1CCC(c2ccccc2)CC1 (racemic) [Example 73, rac-(2-Cyclopropyl-imidazo[5,1-b]thiazol-3-yl)-(4-phenyl-cyclohexyl)-methanol] | 43.7 | 3110 | –
OC(Cc1ccccc1)c1c(C2CC2)sc2cncn12 (racemic) [Example 59, rac-1-(2-Cyclopropyl-imidazo[5,1-b]thiazol-3-yl)-2-phenyl-ethanol] | 249 | 881 | –
OC(c1c(C2CC2)sc2cncn12)[C@H]1C[C@@H]2CC[C@H]1C2 (relative stereo) [Example 20, rac-(1R*,2R*,4S*)-Bicyclo[2.2.1]hept-2-yl-(2-cyclopropyl-imidazo[5,1-b]thiazol-3-yl)-methanol] | 16.1 | – | 190
OC(c1c(C2CC2)sc2cncn12)C1CCc2ccccc2C1 (stereo not shown) [Example 80, (2-Cyclopropyl-imidazo[5,1-b]thiazol-3-yl)-(1,2,3,4-tetrahydro-naphthalen-2-yl)-methanol] | 34.2 | 1810 | –
CC1CCCC1C(O)c1c(C2CC2)sc2cncn12 (stereo not shown) [Example 48, (2-Cyclopropyl-imidazo[5,1-b]thiazol-3-yl)-(2-methyl-cyclopentyl)-methanol] | 8.4 | 70.6 | –
COc1cccc(C(O)c2c(C3CC3)sc3cncn23)c1 (racemic) [Example 56, rac-(2-Cyclopropyl-imidazo[5,1-b]thiazol-3-yl)-(3-methoxy-phenyl)-methanol] | 251 | 3310 | –
CC1CCCC1C(O)c1c(C(F)(F)F)sc2cncn12 (stereo not shown) [Example 119, (2-Methyl-cyclopentyl)-(2-trifluoromethyl-imidazo[5,1-b]thiazol-3-yl)-methanol] | 191 | 187 | –
OC(CC1CCCCC1)c1c(-c2ccccc2)sc2cncn12 (racemic) [Example 93, rac-2-Cyclohexyl-1-(2-phenyl-imidazo[5,1-b]thiazol-3-yl)-ethanol] | 296 | 496 | –
CC(C)n1cc(C(O)c2c(C3CC3)sc3cncn23)cn1 (racemic) [Example 188, rac-(2-Cyclopropyl-imidazo[5,1-b]thiazol-3-yl)-(1-isopropyl-1H-pyrazol-4-yl)-methanol] | 111 | > 10200 | –

Continued, in another order:

IC50 [1] [nM] | IC50 [2, 3] [nM] | SMILES | IC50 ([2]; hTDO activity (IC50 in nM)) [nM]
14.2 | 382 | OC(c1c(C2CC2)sc2cncn12)C1CCCCCC1 (racemic) [Example 165, rac-Cycloheptyl-(2-cyclopropyl-imidazo[5,1-b]thiazol-3-yl)-methanol] | –
287 | 455 | OC(Cc1c(Cl)cccc1Cl)c1c(C2CC2)sc2cncn12 (racemic) [Example 60, rac-1-(2-Cyclopropyl-imidazo[5,1-b]thiazol-3-yl)-2-(2,6-dichloro-phenyl)-ethanol] | –
19.5 | 262 | CC1(C)CCC(C[C@H](O)c2c(C3CC3)sc3cncn23)C1 (stereo partly drawn) [Example 34a, (S)-1-(2-Cyclopropyl-imidazo[5,1-b]thiazol-3-yl)-2-(3,3-dimethyl-cyclopentyl)-ethanol] | –
60.1 | 1530 | CCc1ccc(C(O)c2c(C3CC3)sc3cncn23)cc1 (racemic) [Example 53, rac-(2-Cyclopropyl-imidazo[5,1-b]thiazol-3-yl)-(4-ethyl-phenyl)-methanol] | –
3100 | 1010 | Cc1ccc(-c2sc3cncn3c2C(O)C2CCCCC2)cc1 (racemic) [Example 126, rac-Cyclohexyl-(2-p-tolyl-imidazo[5,1-b]thiazol-3-yl)-methanol] | –
74 | 133 | CC1(C)CCCC1C(O)c1c(C2CC2)sc2cncn12 (stereo not shown) [Example 84, (2-Cyclopropyl-imidazo[5,1-b]thiazol-3-yl)-(2,2-dimethyl-cyclopentyl)-methanol] | –
87.6 | 818 | OC(CC1CCCC(C(F)(F)F)C1)c1c(C2CC2)sc2cncn12 (stereo not shown) [Example 102, 1-(2-Cyclopropyl-imidazo[5,1-b]thiazol-3-yl)-2-(3-trifluoromethyl-cyclohexyl)-ethanol] | –
353 | 2460 | OC(CC1CCC(c2ccccc2)CC1)c1c(C2CC2)sc2cncn12 (racemic) [Example 37, rac-1-(2-Cyclopropyl-imidazo[5,1-b]thiazol-3-yl)-2-(4-phenyl-cyclohexyl)-ethanol] | –
56.7 | 1290 | OC(c1ccccc1F)c1c(C2CC2)sc2cncn12 (racemic) [Example 163, rac-(2-Cyclopropyl-imidazo[5,1-b]thiazol-3-yl)-(2-fluoro-phenyl)-methanol] | –
1040 | 9460 | OC(CC1CCCCC1c1ccccc1)c1c(C2CC2)sc2cncn12 (stereo not shown) [Example 75, 1-(2-Cyclopropyl-imidazo[5,1-b]thiazol-3-yl)-2-(2-phenyl-cyclohexyl)-ethanol] | –
33.7 | 177 | OC(CC12CCC(CC1)C2)c1c(C2CC2)sc2cncn12 (racemic) [Example 22, rac-2-Bicyclo[2.2.1]hept-1-yl-1-(2-cyclopropyl-imidazo[5,1-b]thiazol-3-yl)-ethanol] | –
25.6 | 394 | OC(CC1CCCC1)c1c(C2CC2)sc2cncn12 (racemic) [Example 24, rac-2-Cyclopentyl-1-(2-cyclopropyl-imidazo[5,1-b]thiazol-3-yl)-ethanol] | –
– | 420 | Cc1cscc1-c1sc2cncn2c1C(O)C1CCCCC1 (racemic) [Example 128, rac-Cyclohexyl-[2-(4-methyl-thiophen-3-yl)-imidazo[5,1-b]thiazol-3-yl]-methanol] | –
